Blank lines part the entries; values can stand above or below the compound they belong to.
What was measured:
[1] = Encapsulation of active ingredients in the particles; type: physicochemical
Method: The protocol adopted for encapsulating the hydrophilic active ingredients is to dissolve the active ingredient in water at an initial concentration as indicated in Table 5 and then adding the amphiphilic polysaccharide and the α-cyclodextrin. The mixture is magnetically stirred for 3 days. After this mixing for 3 days, the concentration of the active ingredient that has not been encapsulated is determined in the supernatant of the preparation. The supernatant is separated either by simple sedimentation or by centrifugation of the microparticles, or after ultracentrifugation in the case of the nanoparticles.
The protocol adopted for encapsulating the hydrophobic active ingredients is to dissolve the active ingredient in an ethanol/water mixture at an initial concentration as shown in Table 26 and then add the amphiphilic polysaccharide and the α-cyclodextrin. The mixture is maintained under magnetic stirring for 3 days. After mixing for 3 days, the concentration of the active ingredient that has not been encapsulated is determined in the supernatant of the preparation. The supernatant is separated either by simple sedimentation or by centrifugation of the microparticles, or after ultracentrifugation in the case of the nanoparticles.

bacterial adhesion = details: heparin coating of abiotic surfaces; cited from earlier work
Candida albicans = details: heparin coating of abiotic surfaces; cited from earlier work
[2] = polysaccharide MC6, initial concentration 21.7 g/L, water
[3] = polysaccharide MC8, initial concentration 21.7 g/L, water
[4] = polysaccharide MC9, initial concentration 2.33 g/L, water
[5] = polysaccharide MC6, ethanol/water 40/60 % v/v, initial concentration 3.5 g/L
[6] = polysaccharide MC11, initial concentration 2.34 g/L, water
[7] = polysaccharide MC8, initial concentration 194 g/L, water
[8] = polysaccharide MC9, initial concentration 2.31 g/L, water

- Concentration encapsulated [1, 6]: 780 µg/mL
- Encapsulation yield [1, 6]: 33.33%
Compound: CC(=O)Nc1ccc(O)cc1 [Paracetamol]

- Concentration encapsulated [1, 7]: 104650 µg/mL
- Encapsulation yield [1, 7]: 53.94%
- Concentration encapsulated [1, 8]: 1520 µg/mL
- Encapsulation yield [1, 8]: 65.82%
Compound: Cc1ncc(CO)c(CO)c1O.Cl [Vitamin B6]

Further lines, the compound ahead of its results:

Compound: Cn1c(=O)c2c(ncn2C)n(C)c1=O [Caffeine]
- Concentration encapsulated [1, 2]: 3590 µg/mL
- Encapsulation yield [1, 2]: 16.55%
- Concentration encapsulated [1, 3]: 3150 µg/mL
- Encapsulation yield [1, 3]: 17.53%
- Concentration encapsulated [1, 4]: 510 µg/mL
- Encapsulation yield [1, 4]: 22.23%

Compound: CC(C(=O)O)c1cccc(C(=O)c2ccccc2)c1 (stereo not shown) [Ketoprofen]
- Encapsulated concentration [1, 5]: 1.09 g/L
- Encapsulation yield [1, 5]: 31.12%

Compound: Heparin
- reduction of bacterial adhesion (bacterial adhesion): 90%
- reduction of adhesion of Candida albicans (Candida albicans): approximately 50%

Source: patent publication US10412960B2, “Microparticles and nanoparticles made up of hydrophobized polysaccharides and an alpha-cyclodextrine” (priority 2012, dated 2019)
